Measured values as given in PubChem BioAssay (NCI).
“And” between values parts separate entries of the source, which are not always exact repeats. Identical values can stand only once.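 The compound was tested at five concentrations on cells cultured in 96-well plates, with a 48-hour exposure period. GI50 = concentration required for 50% inhibition of growth. At the TGI there is no net growth.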

How the values were obtained:
Experiment in all cases: NCI-60 cell line screen, 48 h
SNB-19 CNS = tested on: SNB-19 CNS
SF-539 CNS = tested on: SF-539 CNS
HCT-15 colon = tested on: HCT-15 colon
HOP-62 NSCLC = tested on: HOP-62 NSCLC
SNB-75 CNS = tested on: SNB-75 CNS
A498 renal = tested on: A498 renal
CCRF-CEM leukemia = tested on: CCRF-CEM leukemia
KM12 colon = tested on: KM12 colon
TK-10 renal = tested on: TK-10 renal
ACHN renal = tested on: ACHN renal

Row | SMILES | GI50 (SNB-19 CNS) [µM] | TGI (SNB-19 CNS) | GI50 (SF-539 CNS) [µM] | TGI (SF-539 CNS) | GI50 (HCT-15 colon) [µM] | TGI (HCT-15 colon) | GI50 (HOP-62 NSCLC) [µM] | TGI (HOP-62 NSCLC) | GI50 (SNB-75 CNS) [µM] | TGI (SNB-75 CNS) | GI50 (A498 renal) [µM] | TGI (A498 renal) | GI50 (CCRF-CEM leukemia) [µM] | TGI (CCRF-CEM leukemia) | GI50 (KM12 colon) [µM] | TGI (KM12 colon) | GI50 (TK-10 renal) [µM] | TGI (TK-10 renal) | GI50 (ACHN renal) [µM] | TGI (ACHN renal)
1 | CCOc1cc(/C=C/C(=O)CC(=O)/C=C/c2ccc(OC(=O)CNCCN(CC)CC)c(OCC)c2)ccc1OC(=O)CNCCN(CC)CC | 2.86 | 14.2 µM | 1.38 | 3.1 µM | 2.06 | 4.66 µM | 2.5 | 6.06 µM | 6 | 62.4 µM | 2.02 | 3.85 µM | 0.394 | 1.66 µM | 1.4 | 2.97 µM | 2.6 | 6.38 µM | 1.92 | 3.54 µM
2 | C=C(Cl)C(Cl)(CBr)CCC(Br)C(C)(C)Cl (stereo not given) |  | 5.54 µM and 4.55 µM and 10.1 µM |  | 1.12 µM and 2.69 µM and 3.68 µM |  | 10.6 µM and 6.12 µM and 27.8 µM |  | 1.84 µM and 2.01 µM and 2.76 µM |  | 7.12 µM and 1.69 µM and 6.97 µM |  | 4.03 µM and 4.02 µM and 6.05 µM |  | 45.6 µM and 35 µM and > 100 µM |  | 3.57 µM and 2.83 µM and 6.38 µM |  | 3.64 µM and 3.87 µM and 7.61 µM |  | 2.62 µM and 2.63 µM and 3.13 µM
3 | CCN(CCCl)c1cc(CN(C)C)cc(NC(=O)c2cc(C(=O)Nc3cc(CN(C)C)cc(N(CC)CCCl)c3)n(C)n2)c1 |  | 1.24 µM |  | 1.63 µM |  | 10.5 µM |  | 1.21 µM |  | 2.55 µM |  | 4.41 µM |  | 0.299 µM |  | 0.703 µM |  | 6.17 µM |  | 0.749 µM
4 | CCCCCC(/C=C/[C@@H]1[C@@H](C(O)CCCCCC(=O)OC)C(=O)C[C@H]1O[Si](C)(C)C(C)(C)C)OCOCCOC (stereo not given in full) |  | 29 µM |  | 31 µM |  | 27.5 µM |  | 31.6 µM |  | 22.2 µM |  | 42.7 µM |  | > 24.5 µM |  | 16.1 µM |  | 31.3 µM |  | 28.6 µM
5 | CC(=O)O[C@H]1C[C@H]2[C@@H]([C@H](OC(C)=O)C[C@@H]3CC4(CC[C@@]32C)OOC2(CCCCC2)OO4)[C@@H]2CC[C@H]([C@H](C)CCC(=O)O)[C@@]12C |  | 25.4 µM |  | 20.3 µM |  | 17 µM |  | 5.93 µM |  | 14.8 µM |  | 27.1 µM |  | 15.5 µM |  | 17.1 µM |  | 27 µM |  | 20.3 µM
6 | N#C[C@H](C(=O)c1ccccc1F)c1nc2ccccc2[nH]1 |  | > 100 µM |  | > 100 µM |  | > 100 µM |  | > 100 µM |  | > 100 µM |  | > 100 µM |  | > 100 µM |  | > 100 µM |  | > 100 µM |  | > 100 µM
7 | CCN(CC)C(=S)SSCCO | 95.4 | > 100 µM | 15.7 | 29.1 µM | 17.9 | 38.4 µM | > 100 | > 100 µM | 14.8 | 28 µM | 85 | > 100 µM | 14.5 | 45.2 µM | 15 | 30.1 µM | 24 | 40.8 µM | 18.7 | 35.8 µM
8 | CN(CCCNC(=O)c1c2ccc3ccccc3c2nn1C)CCCNC(=O)c1c2ccc3ccccc3c2nn1C |  | 28.6 µM |  | 17.8 µM |  | 19.4 µM |  | 33.7 µM |  | 21.4 µM |  | 15.7 µM |  | 23.6 µM |  | 23.7 µM |  | 18.1 µM |  | 23.8 µM
9 | CCOC(=O)C1=C(C)N(CC(C)C)C2(O)C(OC)CC(=O)C3C(=O)N(c4ccccc4)C(=O)C132 (stereo not given) |  | > 100 µM |  | > 100 µM |  | > 100 µM |  | > 100 µM |  | 75.4 µM |  | > 100 µM |  | > 100 µM |  | 90 µM |  | > 100 µM |  | 72 µM
10 | COc1cccc(Nc2nc(NS(=O)(=O)c3cc(C)c(Cl)cc3S)n[nH]2)c1 |  | > 100 µM |  | > 100 µM |  | > 100 µM |  | > 100 µM |  | > 100 µM |  | > 100 µM |  | > 100 µM |  | > 100 µM |  | > 100 µM |  | > 100 µM
11 | COc1cccc(/C=N/[N-]C(N)=O)c1[O-].[OH3+].[Pd+2] |  | > 100 µM |  | > 100 µM |  | > 100 µM |  | > 100 µM |  | > 100 µM |  | > 100 µM |  | > 100 µM |  | > 100 µM |  | > 100 µM |  | > 100 µM
12 | CC(=O)N1c2ccccc2[C@H]2CCc3c([nH]c4ccccc34)[C@H]21 |  | > 100 µM |  | 26.1 µM |  | 31.6 µM |  | 28.1 µM |  | 63 µM |  | 36.2 µM |  | 40.2 µM |  | 39.5 µM |  | > 100 µM |  | > 100 µM
13 | COCCOCCOCCC(=O)NC1CC2CCC1(C)C2(C)C (stereo not given) |  | > 100 µM |  | > 100 µM |  | > 100 µM |  | > 100 µM |  | > 100 µM |  | > 100 µM |  | > 100 µM |  | > 100 µM |  | > 100 µM |  | > 100 µM
14 | Clc1cccc2[nH]ncc12 |  | > 100 µM |  | > 100 µM |  | > 100 µM |  | > 100 µM |  | > 100 µM |  | > 100 µM |  | > 100 µM |  | > 100 µM |  | > 100 µM |  | > 100 µM
15 | O=C1c2ccccc2-n2c1nc1ccc(Cl)cc1c2=O |  | > 100 µM |  | > 100 µM |  | > 100 µM |  | > 100 µM |  | 75.5 µM |  | > 100 µM |  | 13.8 µM |  | > 100 µM |  | > 100 µM |  | > 100 µM
